{"source": "PubChem BioAssay AID1259407", "about": "(Chemical Carcinogenesis Research Information System (CCRIS), 2018)", "system": "CCRIS mutagenicity, Ames/micronucleus/aberration tests", "assay": "CCRIS mutagenicity studies", "key": {"[1]": {"details": "Test System: AMES SALMONELLA TYPHIMURIUM, Strain/Indicator: TA1535, Metabolic Activation: NONE, Method: PREINCUBATION"}, "[2]": {"details": "Test System: AMES SALMONELLA TYPHIMURIUM, Strain/Indicator: TA100, Metabolic Activation: NONE, Method: STANDARD PLATE"}}, "note": "The source made the active and inactive calls. No rule for the calls is given here.", "data": [{"smiles": "Fc1cccc2ccc3ncccc3c12", "values": [{"measurement": "mutagenic call", "setting": "Test System: AMES SALMONELLA TYPHIMURIUM, Strain/Indicator: TA100, Metabolic Activation: RAT, LIVER, S-9, PHENOBARBITAL AND 5,6-BENZOFLAVONE, Method: PREINCUBATION", "result": "active; positive"}]}, {"smiles": "COc1ccc(C(c2ccc(OC)cc2)C(Cl)(Cl)Cl)cc1", "values": [{"measurement": "mutagenic call", "setting": "Test System: CHINESE HAMSTER OVARY, Strain/Indicator: CHO-K1-BH4 (HGPRT)/6-THIOGUANINE, Metabolic Activation: NONE, Method: SUSPENSION/PLATE", "result": "inactive; negative"}, {"measurement": "mutagenic call", "setting": "Test System: CHINESE HAMSTER OVARY, Strain/Indicator: CHO-K1-BH4 (HGPRT)/6-THIOGUANINE, Metabolic Activation: S-9, Method: SUSPENSION/PLATE", "result": "inactive; negative"}, {"measurement": "mutagenic call", "setting": "Test System: E. COLI, Strain/Indicator: WP2 UVRA, Metabolic Activation: HAMSTER, LIVER, S-9, AROCLOR 1254, Method: STANDARD PLATE", "result": "inactive; negative"}, {"measurement": "mutagenic call", "setting": "Test System: E. COLI, Strain/Indicator: WP2 UVRA, Metabolic Activation: HAMSTER, LIVER, S-9, Method: STANDARD PLATE", "result": "inactive; negative"}, {"measurement": "mutagenic call", "setting": "Test System: E. COLI, Strain/Indicator: WP2 UVRA, Metabolic Activation: MOUSE, LIVER, S-9, AROCLOR 1254, Method: STANDARD PLATE", "result": "inactive; negative"}, {"measurement": "mutagenic call", "setting": "Test System: E. COLI, Strain/Indicator: WP2 UVRA, Metabolic Activation: MOUSE, LIVER, S-9, Method: STANDARD PLATE", "result": "inactive; negative"}, {"measurement": "mutagenic call", "setting": "Test System: E. COLI, Strain/Indicator: WP2 UVRA, Metabolic Activation: NONE, Method: STANDARD PLATE", "result": "inactive; negative"}, {"measurement": "mutagenic call", "setting": "Test System: E. COLI, Strain/Indicator: WP2 UVRA, Metabolic Activation: RAT, LIVER, S-9, AROCLOR 1254, Method: STANDARD PLATE", "result": "inactive; negative"}, {"measurement": "mutagenic call", "setting": "Test System: E. COLI, Strain/Indicator: WP2 UVRA, Metabolic Activation: RAT, LIVER, S-9, Method: STANDARD PLATE", "result": "inactive; negative"}, {"measurement": "mutagenic call", "setting": "Test System: MOUSE LYMPHOMA, Strain/Indicator: L5178Y (TK+/TK-), Metabolic Activation: NONE, Method: SUSPENSION/PLATE", "result": "inactive; negative"}, {"measurement": "mutagenic call", "setting": "Test System: MOUSE LYMPHOMA, Strain/Indicator: L5178Y (TK+/TK-), Metabolic Activation: RAT, LIVER, S-9, AROCLOR 1254, Method: SUSPENSION/PLATE", "result": "active; positive"}, {"measurement": "mutagenic call", "setting": "Test System: MOUSE LYMPHOMA, Strain/Indicator: L5178Y (TK+/TK-), Metabolic Activation: RAT, LIVER, S-9, Method: SUSPENSION/PLATE", "result": "active; positive"}, {"measurement": "mutagenic call", "setting": "Test System: MOUSE LYMPHOMA, Strain/Indicator: L5178Y (TK+/TK-), Metabolic Activation: S-9, Method: SUSPENSION/PLATE", "result": "active; positive"}]}, {"smiles": "CCCCCCCCCCO", "values": [{"measurement": "mutagenic call", "setting": "Test System: AMES SALMONELLA TYPHIMURIUM, Strain/Indicator: TA98, Metabolic Activation: NONE, Method: PREINCUBATION", "result": "inactive; negative"}, {"measurement": "mutagenic call", "setting": "Test System: AMES SALMONELLA TYPHIMURIUM, Strain/Indicator: TA98, Metabolic Activation: RAT, LIVER, S-9, PHENOBARBITAL AND BETA-NAPHTHOFLAVONE, Method: PREINCUBATION", "result": "inactive; negative"}, {"measurement": "mutagenic call", "setting": "Test System: AMES SALMONELLA TYPHIMURIUM, Strain/Indicator: TA100, Metabolic Activation: NONE, Method: PREINCUBATION", "result": "inactive; negative"}, {"measurement": "mutagenic call", "setting": "Test System: AMES SALMONELLA TYPHIMURIUM, Strain/Indicator: TA100, Metabolic Activation: RAT, LIVER, S-9, PHENOBARBITAL AND BETA-NAPHTHOFLAVONE, Method: PREINCUBATION", "result": "inactive; negative"}, {"measurement": "mutagenic call", "setting": "Test System: AMES SALMONELLA TYPHIMURIUM, Strain/Indicator: TA102, Metabolic Activation: NONE, Method: PREINCUBATION", "result": "inactive; negative"}, {"measurement": "mutagenic call", "setting": "Test System: AMES SALMONELLA TYPHIMURIUM, Strain/Indicator: TA102, Metabolic Activation: RAT, LIVER, S-9, SODIUM PHENOBARBITAL AND 5,6-BENZOFLAVONE, Method: PREINCUBATION", "result": "inactive; negative"}, {"measurement": "mutagenic call", "setting": "Test System: AMES SALMONELLA TYPHIMURIUM, Strain/Indicator: TA104, Metabolic Activation: NONE, Method: PREINCUBATION", "result": "inactive; negative"}, {"measurement": "mutagenic call", "setting": "Test System: AMES SALMONELLA TYPHIMURIUM, Strain/Indicator: TA104, Metabolic Activation: RAT, LIVER, S-9, SODIUM PHENOBARBITAL AND 5,6-BENZOFLAVONE, Method: PREINCUBATION", "result": "inactive; negative"}, {"measurement": "mutagenic call", "setting": "[1]", "result": "inactive; negative"}, {"measurement": "mutagenic call", "setting": "Test System: AMES SALMONELLA TYPHIMURIUM, Strain/Indicator: TA1535, Metabolic Activation: RAT, LIVER, S-9, PHENOBARBITAL AND BETA-NAPHTHOFLAVONE, Method: PREINCUBATION", "result": "inactive; negative"}, {"measurement": "mutagenic call", "setting": "Test System: AMES SALMONELLA TYPHIMURIUM, Strain/Indicator: TA1537, Metabolic Activation: NONE, Method: PREINCUBATION", "result": "inactive; negative"}, {"measurement": "mutagenic call", "setting": "Test System: AMES SALMONELLA TYPHIMURIUM, Strain/Indicator: TA1537, Metabolic Activation: RAT, LIVER, S-9, PHENOBARBITAL AND BETA-NAPHTHOFLAVONE, Method: PREINCUBATION", "result": "inactive; negative"}, {"measurement": "mutagenic call", "setting": "Test System: CHINESE HAMSTER V-79, Strain/Indicator: V-79 (HPRT)/6-THIOGUANINE, Metabolic Activation: NONE, Method: STANDARD PLATE", "result": "inactive; negative"}, {"measurement": "mutagenic call", "setting": "Test System: CHINESE HAMSTER V-79, Strain/Indicator: V-79 (HPRT)/6-THIOGUANINE, Metabolic Activation: RAT LIVER S-9, Method: STANDARD PLATE", "result": "inactive; negative"}, {"measurement": "mutagenic call", "setting": "Test System: E. COLI, Strain/Indicator: WP2UVRA/PKM101, Metabolic Activation: NONE, Method: PREINCUBATION", "result": "inactive; negative"}, {"measurement": "mutagenic call", "setting": "Test System: E. COLI, Strain/Indicator: WP2UVRA/PKM101, Metabolic Activation: RAT, LIVER, S-9, PHENOBARBITAL AND BETA-NAPHTHOFLAVONE, Method: PREINCUBATION", "result": "inactive; negative"}, {"measurement": "mutagenic call", "setting": "Test System: E. COLI, Strain/Indicator: WP2UVRA, Metabolic Activation: NONE, Method: PREINCUBATION", "result": "inactive; negative"}, {"measurement": "mutagenic call", "setting": "Test System: E. COLI, Strain/Indicator: WP2UVRA, Metabolic Activation: RAT, LIVER, S-9, PHENOBARBITAL AND BETA-NAPHTHOFLAVONE, Method: PREINCUBATION", "result": "inactive; negative"}]}, {"smiles": "COC(=O)[C@H]1O[C@H]1c1ccccc1", "values": [{"measurement": "mutagenic call", "setting": "[2]", "result": "active; positive"}]}, {"smiles": "O=C(ON(OCc1ccccc1)C(=O)c1ccccc1)c1ccccc1", "values": [{"measurement": "mutagenic call", "setting": "[2]", "result": "active; positive"}]}, {"smiles": "CCN=[N+]([O-])CC", "values": [{"measurement": "mutagenic call", "setting": "Test System: AMES SALMONELLA TYPHIMURIUM, Strain/Indicator: TA1535, Metabolic Activation: HAMSTER, LIVER, S-9, AROCLOR 1254, Method: PREINCUBATION", "result": "inactive; negative"}, {"measurement": "mutagenic call", "setting": "[1]", "result": "inactive; negative"}, {"measurement": "mutagenic call", "setting": "Test System: AMES SALMONELLA TYPHIMURIUM, Strain/Indicator: TA1535, Metabolic Activation: RAT, LIVER, S-9, AROCLOR 1254, Method: PREINCUBATION", "result": "inactive; negative"}]}]}
